Measurements taken from US4221794A, “Method of imparting immunomodulating and antiviral activity” (Newport Pharmaceuticals International, Inc., priority 1979, dated 1980).
“Also recorded” adds a separate entry of the source.

Legend:
Herpes virus = assay: Anti-herpes activity, plaque assay (Table 3); type: cell-based, herpes hominis type 2 (Vero cells); settings: for Plaques (PFU) Percent Inhibition: Test 15-150 μg/ml; for reduce plaque formation caused by Herpes Simplex virus: concentrations less than 100 μg/ml
From the text: Anti-Herpes Activity--(Plaque Assay)
The infection of tissue culture cells by Herpes virus causes cell lysis. After a period of time these lysed cells are visualized as a tiny clear area (plaque) on a layer of cells. The incorporation of a test substance into the media will reduce the number of plaques if it is capable of preventing virus replication. The method is as follows:
There was employed herpes hominis type 2 purchased from American Type Culture Collection (ATCC), Bethesda, Maryland, ATCC #VR 540, Lot 3D. The lyophilized viral suspension was reconstituted with 1 ml sterile distilled H2 O. The virus was passed twice through HeLa-cell monolayers. The tissue-culture supernates were pooled, dispensed in 1-ml aliquots, and stored at -70° C.
Vero cells in log-growth phase were subcultured at a concentration of 1×10^5 cells/ml in 50-ml Falcon flasks in Eagle's Minimum Essential Medium (MEM), supplemented with 10% fetal calf serum (FCS) and antibiotics. Media were changed the day following planting. The Vero monolayers reached confluence by the second day after planting and with the cells in log phase, the cultures were used for the plaque assay.
Culture media were poured off and the monolayers were wahsed once with phosphate-buffered saline (PBS). Several different dilutions of the working-stock virus suspension were prepared and each culture flask was infected with 0.5 ml of one of the virus dilutions added to FCS-free medium. […] Controls were prepared with medium devoid of drug.
Virus adsorption was allowed to proceed for 2 hours at 37° C., during which time the cultures were rocked gently every 15 minutes. Then Media were poured off and the monolayers were washed once with 10 ml PBS.
Agarose was prepared at a concentration of 6% w/v in 50 ml PBS. A stock medium of MEM supplemented with 2% FCS was prepared. Drug was added to some of the stock medium at 150 μg/ml. The three solutions were maintained at 47° C. In addition, a 1:10 dilution of pooled human anti-herpes sera was readied. Just before the start of treatment, 15 ml of the agarose solution were added to 85 ml of medium. Another 15 ml of agarose were added to 85 ml of drug-medium.
Each of the washed monolayers in one group of experiments was treated either with 5 ml of agarose-medium or with 5 ml of agarose-drug-medium. In another group of experiments, each monolayer was treated either with 0.2 ml of anti-herpes sera in 5 ml of stock medium, or with 0.2 ml of anti-herpes sera in 5 ml of drug-medium. The anti-herpes sera were used in place of agarose to localize plaques by neutralizing any free virus in the medium. The flasks were allowed to remain at room temperature for 5 minutes, after which they were incubated at 37° C. for 2 days. Triplicate cultures were used for most treatment groups.
Ten ml of PBS then were added to each flask. Overlays were shaken gently and then were poured out of the flasks. The monolayers were stained with a solution 0.5% w/v crystal violet in 50% methanol in triple-distilled H2 O.
Plaques were counted either directly by transmitted fluorescent light and macroviewing, or by the use of light microscopy for microplaques. Microplaques were counted by averaging three fields per experimental group under 150×magnification.

spleen cells = assay: In vivo treatment of mice: effect on in vitro Con A stimulation of spleen cell proliferation; parameters: species or system male Balb/C mice
Method: The purpose of this study was to determine the effects of in vivo treatment of mice with the compounds NPT 15392 and 15410 on the subsequent activity of spleen cells isolated from these animals and evaluated in vitro for their proliferative response to the mitogen, Concanavalin A (Con A).
Nine male Balb/C mice, 8-9 weeks old, weighing 18-20 gms were divided into three groups. One group was treated twice daily (for 1 day), in the morning and afternoon, with an oral dose of NPT 15392 at 10 mg/kg. The second group was similarly treated with NPT 15410 at 20 mg/kg. A third group, dosed with saline served as a placebo control.
The following day, each group was sacrificed and the spleens removed and pooled. The spleens were minced and the cells washed in RPMI-1640 medium (Grand Island Biologicals) supplemental with 2 mm glutamine and antibiotics. The cell concentration of each preparation was determined by a Coulter counter and adjusted to 5×10^6 cells/ml with RPMI medium.
Microtiter assays were carried out in 0.2 ml incubations, containing 5×10^5 cells and Con A or Con A and compounds at the indicated concentrations. All assays were performed with 6 replicates and compared with a blank assay containing only cells. The assay plates were incubated at 37° in 5% CO2 for 4 days. During the final 18-20 hours of incubation, 0.5 ml of ^3 HTdR (10 μCi/ml, 6 Ci /m mole) were added to each culture. The cultures were harvested with a multiple automatic sample harvester (MASH) unit and the incorporated ^3 HTdR determined with a Beckman LS 8000 liquid scintillation counter, as a measure of cell proliferation. The results are tabulated as the ratio of the activity in the Con A or Con A and compound treated cultures to the blank cultures.

influenza virus = assay: Anti-influenza activity (overall); type: cell-based, several strains of A and B sub-types; settings: for inhibit the replication of different strains of influenza virus (number of strains): concentrations ranging from 1-150 μg/ml
immune response = assay: Immunomodulating activity (overall); type: cell-based
From the text: The following three assay procedures are used to evaluate the ability of the test substances to modulate the activity of several classes of cells in the immune system. In these systems it is possible to identify both immunopotentiating activity (evidence by an enhancement of the parameter examined) as well as immunosuppressant activity (evidenced by an inhibition of the parameter examined).
Table 4 above presents the results of an evaluation of a number of these subject compounds as potentiators of the immune response. Three different test systems were used. The first involves a measure of the ability of the test compound to enhance the ability of mouse lymphocytes to proliferate in response to a plant mitogen (Con A). The second involves measuring the ability of the test compounds to enhance human lymphocyte proliferation in response to a second plant mitogen (PHA). The third system measures the ability of these test substances to enhance macrophage proliferation in response to a natural lymphokine (MMF, Macrophage Mitogenic Factor).

[1] = tested on: human peripheral blood lymphocytes; assay: Mitogen (PHA) induced human lymphocyte proliferation; type: cell-based; settings: plus = immunostimulating, minus = immunoinhibiting, 0 = neither
[2] = Con A 5 μg/ml (suboptimal), oral 15392 10 mg/kg, 15410 20 mg/kg

Compound | inhibition of replication of Herpes Simplex virus (in words) (Herpes virus) | Plaques (PFU) Percent Inhibition (Herpes virus) | reduce plaque formation caused by Herpes Simplex virus (Herpes virus) | response of spleen cells to Con A after in vivo treatment (in words) (spleen cells; [2]) | response of spleen cells to Con A after in vivo treatment (in words) (spleen cells; Con A 10 μg/ml (more optimal)) | anti-influenza activity (in words) (influenza virus; compound by itself) | inhibit the replication of different strains of influenza virus (number of strains) (influenza virus) | potentiation of the immune response (in words) (immune response) | Maximum Percent Change, Mitogen Induced (PHA) Human Lymph. Prolif. ([1]; 1.0-10 (unit not given)) | Maximum Percent Change, Mitogen Induced (PHA) Human Lymph. Prolif. ([1]; 10-100 (unit not given)) | Maximum Percent Change, Mitogen Induced (PHA) Human Lymph. Prolif. ([1]; .01-1.0 (unit not given)) | potentiation of anti-influenza activity by DIP.PAcBA salt (influenza virus) | Potentiation of immunopotentiation by DIP.PAcBA salt (immune response; salt compared with parent compound)
CCCCCC[C@H]([C@H](C)O)n1cnc2c(=O)[nH]cnc21 (relative stereo) [NPT 15392, ERYTHRO-9-(2-HYDROXY-3-NONYL)HYPOXANTHINE] | shown to inhibit the replication of Herpes Simplex virus | 98% | > 90% | increases the subsequent response of the spleen cells | No significant differences | significant anti-influenza activity | at least 4 different strains | potentiation of the immune response has been observed | 20% | -50% | 11-15% |  | 
CCCCCC[C@H]([C@H](C)O)n1cnc2c(=O)[nH]cnc21 (relative stereo) [NPT 15410] | shown to inhibit the replication of Herpes Simplex virus | 98% | > 90% | increases the subsequent response of the spleen cells | No significant differences |  | at least 4 different strains | potentiation of the immune response has been observed | 60% |  |  | does not potentiate the anti-influenza activity; also recorded: equally active | Yes
